pIC50: −log10 of the molar value. Like-named read-outs stand apart in the source and are kept apart here.
How the values were obtained:
human orexin-2 receptor = human orexin-2 receptor (Homo sapiens (Human), UniProt O43614); assay: Intracellular calcium measurement (FLIPR), CHO cells expressing human orexin-2 receptor, 3 nM orexin-A; format: cell-based; conditions: CHO cells expressing human orexin-2 receptor, FLIPR, 3 nM orexin-A; geometric mean if determined several times; read-out: IC50 OX2
Summary of the method: (§1)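 CHO cells stably expressing each receptor were loaded with 3 μM fluo-4 AM plus 5 mM probenecid for 50 min at 37 °C, then equilibrated 30 min at rt.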

orexin-1 = orexin-1 (Homo sapiens (Human), UniProt O43613); assay: Intracellular calcium measurement (FLIPR), CHO cells expressing human orexin-1 receptor, 3 nM orexin-A; format: cell-based; conditions: read-out: IC50 OX1
Chain of orexin-1 (O43613 whole entry): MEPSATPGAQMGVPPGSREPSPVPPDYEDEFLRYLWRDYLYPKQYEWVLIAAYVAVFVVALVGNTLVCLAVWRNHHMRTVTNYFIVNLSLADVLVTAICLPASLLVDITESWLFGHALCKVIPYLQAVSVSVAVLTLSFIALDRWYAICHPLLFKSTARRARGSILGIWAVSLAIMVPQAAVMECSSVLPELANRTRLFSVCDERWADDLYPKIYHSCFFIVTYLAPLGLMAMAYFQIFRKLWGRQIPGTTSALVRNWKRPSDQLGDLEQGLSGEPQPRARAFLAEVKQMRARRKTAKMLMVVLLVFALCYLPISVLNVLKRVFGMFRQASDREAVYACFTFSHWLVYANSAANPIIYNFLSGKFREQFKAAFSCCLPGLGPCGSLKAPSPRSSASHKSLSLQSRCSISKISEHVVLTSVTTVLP
Summary of the method: as §1

[1] = CHO cells expressing human orexin-1 receptor, FLIPR, 3 nM orexin-A, geometric mean if determined several times

Chain of human orexin-2 receptor (O43614 whole entry): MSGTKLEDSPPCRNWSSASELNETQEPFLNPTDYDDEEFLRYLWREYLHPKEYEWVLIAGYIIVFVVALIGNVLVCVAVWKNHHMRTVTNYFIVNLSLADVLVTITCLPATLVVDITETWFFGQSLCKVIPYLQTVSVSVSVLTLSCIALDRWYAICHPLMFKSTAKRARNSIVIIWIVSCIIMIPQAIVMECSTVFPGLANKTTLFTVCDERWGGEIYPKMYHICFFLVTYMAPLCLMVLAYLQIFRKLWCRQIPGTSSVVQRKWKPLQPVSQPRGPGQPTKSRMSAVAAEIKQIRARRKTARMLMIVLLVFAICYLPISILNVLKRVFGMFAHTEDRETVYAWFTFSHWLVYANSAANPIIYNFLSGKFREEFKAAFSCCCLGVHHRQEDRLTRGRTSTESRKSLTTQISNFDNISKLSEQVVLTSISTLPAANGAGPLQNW

Row | pIC50 (human orexin-2 receptor) | pIC50 (orexin-1; [1]) | SMILES | pIC50 (orexin-1)
1 | 6.87 | 6.53 | CCOc1ncccc1-c1noc([C@@H]2CCCN2C(=O)c2cc(C#N)ccc2-n2nccn2)n1 [compound 279, 3-{(S)-2-[3-(2-Ethoxy-pyridin-3-yl)-[1,2,4]oxadiazol-5-yl]-pyrrolidine-1-carbonyl}-4-[1,2,3]triazol-2-yl-benzonitrile] | –
2 | 7.25 | 7.05 | COc1cc(C(=O)N2CCC[C@H]2c2nc(-c3ccccc3OC(F)(F)F)no2)c(-c2ncccn2)cc1C [compound 285, (5-Methoxy-4-methyl-2-pyrimidin-2-yl-phenyl)-{(S)-2-[3-(2-trifluoromethoxy-phenyl)-[1,2,4]oxadiazol-5-yl]-pyrrolidin-1-yl}-methanone] | –
3 | 8.22 | 7.05 | COc1cc(C(=O)N2CCC[C@H]2c2nc(-c3cccc(F)c3OC)no2)c(-c2ncccn2)cc1C [compound 286, {(S)-2-[3-(3-Fluoro-2-methoxy-phenyl)-[1,2,4]oxadiazol-5-yl]-pyrrolidin-1-yl}-(5-methoxy-4-methyl-2-pyrimidin-2-yl-phenyl)-methanone] | –
4 | 7.38 | 7.14 | CCOc1ncccc1-c1noc([C@@H]2CCCN2C(=O)c2cc(OC)c(C)cc2-c2ncccn2)n1 [compound 287, {(S)-2-[3-(2-Ethoxy-pyridin-3-yl)-[1,2,4]oxadiazol-5-yl]-pyrrolidin-1-yl}-(5-methoxy-4-methyl-2-pyrimidin-2-yl-phenyl)-methanone] | –
5 | 7.28 | 6.18 | CCOc1c(F)cccc1-c1noc([C@@H]2CCCN2C(=O)c2ccccc2-n2nccn2)n1 [compound 288, {(S)-2-[3-(2-Ethoxy-3-fluoro-phenyl)-[1,2,4]oxadiazol-5-yl]-pyrrolidin-1-yl}-(2-[1,2,3]triazol-2-yl-phenyl)-methanone] | –
6 | 7.43 | 7.36 | CCOc1c(F)cccc1-c1noc([C@@H]2CCCN2C(=O)c2ccc(C)cc2-n2nccn2)n1 [compound 289, {(S)-2-[3-(2-Ethoxy-3-fluoro-phenyl)-[1,2,4]oxadiazol-5-yl]-pyrrolidin-1-yl}-(4-methyl-2-[1,2,3]triazol-2-yl-phenyl)-methanone] | –
7 | 8.30 | 8.05 | CCOc1c(F)cccc1-c1noc([C@@H]2CCCN2C(=O)c2cc(C)c(C)cc2-n2nccn2)n1 [compound 290, (4,5-Dimethyl-2-[1,2,3]triazol-2-yl-phenyl)-{(S)-2-[3-(2-ethoxy-3-fluoro-phenyl)-[1,2,4]oxadiazol-5-yl]-pyrrolidin-1-yl}-methanone] | –
8 | 8.30 | 7.68 | CCOc1c(F)cccc1-c1noc([C@@H]2CCCN2C(=O)c2cc(OC)c(C)cc2-n2nccn2)n1 [compound 291, {(S)-2-[3-(2-Ethoxy-3-fluoro-phenyl)-[1,2,4]oxadiazol-5-yl]-pyrrolidin-1-yl}-(5-methoxy-4-methyl-2-[1,2,3]triazol-2-yl-phenyl)-methanone] | –
9 | 7.28 | 6.46 | CCOc1c(F)cccc1-c1noc([C@@H]2CCCN2C(=O)c2cc(OC)c(F)cc2-n2nccn2)n1 [compound 292, {(S)-2-[3-(2-Ethoxy-3-fluoro-phenyl)-[1,2,4]oxadiazol-5-yl]-pyrrolidin-1-yl}-(4-fluoro-5-methoxy-2-[1,2,3]triazol-2-yl-phenyl)-methanone] | –

Row | SMILES | pIC50 (human orexin-2 receptor) | pIC50 (orexin-1; [1]) | pIC50 (orexin-1)
10 | COc1cc(C(=O)N2CCC[C@H]2c2nc(-c3cccc(Cl)c3C)no2)c(-n2nccn2)cc1Cl [compound 280] | 8.40 | 7.27 | –
11 | COc1cc(C(=O)N2CCC[C@H]2c2nc(-c3ccccc3OC(F)(F)F)no2)c(-n2nccn2)cc1Cl [compound 281] | 7.77 | 7.38 | –
12 | COc1cc(C(=O)N2CCC[C@H]2c2nc(-c3cccc(F)c3OC)no2)c(-n2nccn2)cc1Cl [compound 282] | 9.00 | 7.36 | –
13 | CCOc1c(F)cccc1-c1noc([C@@H]2CCCN2C(=O)c2cc(OC)c(Cl)cc2-n2nccn2)n1 [compound 283] | 8.15 | – | 7.47
14 | CCOc1ncccc1-c1noc([C@@H]2CCCN2C(=O)c2cc(OC)c(Cl)cc2-n2nccn2)n1 [compound 284] | 8.30 | – | 7.49

Source: patent US9493446B2, “Orexin receptor antagonists which are [ortho bi-(hetero-)aryl]-[2-(meta bi-(hetero-)aryl)-pyrrolidin-1-yl]-methanone derivatives” (Actelion Pharmaceuticals Ltd, priority 2012, dated 2016)
